The target in one experiment is T1, Recombinant JAK1 (Homo sapiens, UniProt P23458).
T1 construct: purchased Carna Biosciences
The experiment in a line: JAK biochemical assay (LANCE Ultra TR-FRET), JAK1. As to conditions: recombinant JAK1, TR-FRET; read-out: Biochemical Assay (μM) JAK1. In a few lines:
(§1)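 Kinase reactions ran in buffer of 50 mM HEPES pH 7.5 with 1 mM EGTA, 10 mM MgCl2, 2 mM DTT and 0.01% Tween-20, using recombinant enzyme. Phosphorylated ULight substrate was detected by TR-FRET, and compound effect expressed as % inhibition against vehicle.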

For another experiment, the target named is T2, Recombinant JAK2 (Homo sapiens, UniProt O60674).
T2 construct: purchased Carna Biosciences
T2 sequence (O60674 whole entry): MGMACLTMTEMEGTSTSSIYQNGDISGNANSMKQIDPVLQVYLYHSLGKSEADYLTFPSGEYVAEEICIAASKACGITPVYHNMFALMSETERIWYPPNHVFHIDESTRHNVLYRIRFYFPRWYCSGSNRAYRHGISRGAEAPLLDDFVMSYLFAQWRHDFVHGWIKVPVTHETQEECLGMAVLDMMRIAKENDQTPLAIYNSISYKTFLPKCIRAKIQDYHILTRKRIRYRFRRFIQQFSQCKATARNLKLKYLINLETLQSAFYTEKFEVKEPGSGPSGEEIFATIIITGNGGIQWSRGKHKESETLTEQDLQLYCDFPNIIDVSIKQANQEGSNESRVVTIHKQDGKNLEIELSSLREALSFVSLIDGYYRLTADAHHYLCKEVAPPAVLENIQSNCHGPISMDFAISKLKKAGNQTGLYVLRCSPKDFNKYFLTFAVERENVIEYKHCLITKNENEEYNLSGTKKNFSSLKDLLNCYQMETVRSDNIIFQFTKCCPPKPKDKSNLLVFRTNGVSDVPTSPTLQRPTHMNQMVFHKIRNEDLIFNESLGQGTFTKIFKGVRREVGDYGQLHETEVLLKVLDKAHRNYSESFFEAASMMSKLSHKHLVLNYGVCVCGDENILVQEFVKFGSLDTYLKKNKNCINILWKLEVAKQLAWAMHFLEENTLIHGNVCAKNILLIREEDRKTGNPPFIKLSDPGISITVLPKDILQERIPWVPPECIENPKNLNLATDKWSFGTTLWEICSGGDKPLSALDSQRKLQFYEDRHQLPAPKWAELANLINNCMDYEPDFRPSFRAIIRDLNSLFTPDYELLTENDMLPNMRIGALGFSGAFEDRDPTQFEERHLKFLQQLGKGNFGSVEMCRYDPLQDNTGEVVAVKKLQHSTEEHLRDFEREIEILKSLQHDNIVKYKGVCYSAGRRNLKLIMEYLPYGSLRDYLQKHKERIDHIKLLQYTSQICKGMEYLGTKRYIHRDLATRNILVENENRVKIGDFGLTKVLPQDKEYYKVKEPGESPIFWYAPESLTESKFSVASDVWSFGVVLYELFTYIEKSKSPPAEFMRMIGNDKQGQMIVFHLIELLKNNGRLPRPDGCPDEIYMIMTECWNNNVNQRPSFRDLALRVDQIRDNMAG
The experiment in a line: JAK biochemical assay (LANCE Ultra TR-FRET), JAK2. As to conditions: recombinant JAK2, TR-FRET; read-out: Biochemical Assay (μM) JAK2. In a few lines:
as §1

The next experiment addresses T3, Recombinant JAK3 (Homo sapiens, UniProt P52333).
T3 construct: purchased Carna Biosciences
T3 sequence (P52333 1-1124): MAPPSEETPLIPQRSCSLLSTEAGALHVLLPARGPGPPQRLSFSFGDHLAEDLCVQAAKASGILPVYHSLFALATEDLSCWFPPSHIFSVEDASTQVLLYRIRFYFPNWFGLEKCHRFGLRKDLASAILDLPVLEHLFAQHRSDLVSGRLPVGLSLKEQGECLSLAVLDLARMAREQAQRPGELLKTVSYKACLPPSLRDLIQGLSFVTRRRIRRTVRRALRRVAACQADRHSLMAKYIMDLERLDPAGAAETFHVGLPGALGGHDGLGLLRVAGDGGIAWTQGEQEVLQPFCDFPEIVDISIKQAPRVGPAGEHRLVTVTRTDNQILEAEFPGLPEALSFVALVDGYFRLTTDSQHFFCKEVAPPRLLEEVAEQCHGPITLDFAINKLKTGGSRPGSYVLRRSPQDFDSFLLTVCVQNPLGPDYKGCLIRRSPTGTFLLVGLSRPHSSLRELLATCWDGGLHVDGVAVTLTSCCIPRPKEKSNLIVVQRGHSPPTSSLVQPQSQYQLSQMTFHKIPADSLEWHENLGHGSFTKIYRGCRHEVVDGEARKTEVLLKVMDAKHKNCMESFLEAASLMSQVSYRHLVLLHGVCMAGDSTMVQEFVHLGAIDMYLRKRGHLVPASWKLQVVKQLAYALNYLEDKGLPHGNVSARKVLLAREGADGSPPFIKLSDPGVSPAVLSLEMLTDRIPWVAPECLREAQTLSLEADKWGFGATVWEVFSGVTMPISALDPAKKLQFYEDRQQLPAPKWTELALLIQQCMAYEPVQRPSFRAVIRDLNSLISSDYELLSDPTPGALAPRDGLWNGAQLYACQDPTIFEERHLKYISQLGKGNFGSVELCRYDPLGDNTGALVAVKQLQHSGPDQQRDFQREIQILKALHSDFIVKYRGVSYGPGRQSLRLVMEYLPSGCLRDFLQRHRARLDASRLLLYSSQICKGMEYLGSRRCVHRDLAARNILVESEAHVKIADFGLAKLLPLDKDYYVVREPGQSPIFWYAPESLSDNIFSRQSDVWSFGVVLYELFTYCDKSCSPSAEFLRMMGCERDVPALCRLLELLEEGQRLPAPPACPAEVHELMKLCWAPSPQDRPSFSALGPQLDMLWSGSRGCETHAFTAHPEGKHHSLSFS
The experiment in a line: JAK biochemical assay (LANCE Ultra TR-FRET), JAK3. As to conditions: recombinant JAK3, TR-FRET; read-out: Biochemical Assay (μM) JAK3. An outline of the steps: as §1

The target in the next experiment is T4, Recombinant TYK2 (Homo sapiens, UniProt P29597).
T4 construct: purchased Carna Biosciences
T4 sequence (P29597 whole entry): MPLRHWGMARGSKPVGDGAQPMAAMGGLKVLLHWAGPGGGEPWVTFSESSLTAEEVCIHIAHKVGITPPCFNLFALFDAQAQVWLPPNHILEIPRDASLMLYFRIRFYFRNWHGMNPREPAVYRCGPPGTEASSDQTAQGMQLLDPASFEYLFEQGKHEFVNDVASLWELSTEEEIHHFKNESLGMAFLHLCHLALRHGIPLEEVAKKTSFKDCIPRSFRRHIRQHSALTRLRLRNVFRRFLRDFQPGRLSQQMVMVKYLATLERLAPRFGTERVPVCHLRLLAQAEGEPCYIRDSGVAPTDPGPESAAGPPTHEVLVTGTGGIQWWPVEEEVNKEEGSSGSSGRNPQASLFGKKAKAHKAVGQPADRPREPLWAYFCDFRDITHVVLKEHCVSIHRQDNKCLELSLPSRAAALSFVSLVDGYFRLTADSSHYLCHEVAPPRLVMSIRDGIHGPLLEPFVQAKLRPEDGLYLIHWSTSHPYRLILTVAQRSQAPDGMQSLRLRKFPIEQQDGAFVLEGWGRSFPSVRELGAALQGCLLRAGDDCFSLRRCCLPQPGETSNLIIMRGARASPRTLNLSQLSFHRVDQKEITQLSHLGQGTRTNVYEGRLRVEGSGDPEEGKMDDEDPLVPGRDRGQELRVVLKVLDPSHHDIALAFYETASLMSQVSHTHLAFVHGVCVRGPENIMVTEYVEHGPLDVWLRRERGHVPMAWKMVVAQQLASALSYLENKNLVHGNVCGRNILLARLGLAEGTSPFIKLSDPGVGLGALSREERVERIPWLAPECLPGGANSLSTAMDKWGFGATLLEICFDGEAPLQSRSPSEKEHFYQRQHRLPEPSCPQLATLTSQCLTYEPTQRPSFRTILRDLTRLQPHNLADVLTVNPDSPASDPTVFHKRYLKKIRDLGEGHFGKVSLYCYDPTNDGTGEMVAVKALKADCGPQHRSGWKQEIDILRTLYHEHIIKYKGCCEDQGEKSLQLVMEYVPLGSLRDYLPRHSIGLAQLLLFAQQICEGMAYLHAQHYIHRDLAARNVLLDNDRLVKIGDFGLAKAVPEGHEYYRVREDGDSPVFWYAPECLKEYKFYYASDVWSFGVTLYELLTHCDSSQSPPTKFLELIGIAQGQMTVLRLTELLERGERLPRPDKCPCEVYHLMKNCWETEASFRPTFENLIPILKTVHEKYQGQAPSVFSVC
Description: JAK biochemical assay (LANCE Ultra TR-FRET), TYK2. As to conditions: recombinant TYK2, TR-FRET; read-out: Biochemical Assay (μM) TYK2. An outline of the steps:
as §1

Structures can show the parent of a compound that is named as a salt.

T1 sequence (P23458 whole entry): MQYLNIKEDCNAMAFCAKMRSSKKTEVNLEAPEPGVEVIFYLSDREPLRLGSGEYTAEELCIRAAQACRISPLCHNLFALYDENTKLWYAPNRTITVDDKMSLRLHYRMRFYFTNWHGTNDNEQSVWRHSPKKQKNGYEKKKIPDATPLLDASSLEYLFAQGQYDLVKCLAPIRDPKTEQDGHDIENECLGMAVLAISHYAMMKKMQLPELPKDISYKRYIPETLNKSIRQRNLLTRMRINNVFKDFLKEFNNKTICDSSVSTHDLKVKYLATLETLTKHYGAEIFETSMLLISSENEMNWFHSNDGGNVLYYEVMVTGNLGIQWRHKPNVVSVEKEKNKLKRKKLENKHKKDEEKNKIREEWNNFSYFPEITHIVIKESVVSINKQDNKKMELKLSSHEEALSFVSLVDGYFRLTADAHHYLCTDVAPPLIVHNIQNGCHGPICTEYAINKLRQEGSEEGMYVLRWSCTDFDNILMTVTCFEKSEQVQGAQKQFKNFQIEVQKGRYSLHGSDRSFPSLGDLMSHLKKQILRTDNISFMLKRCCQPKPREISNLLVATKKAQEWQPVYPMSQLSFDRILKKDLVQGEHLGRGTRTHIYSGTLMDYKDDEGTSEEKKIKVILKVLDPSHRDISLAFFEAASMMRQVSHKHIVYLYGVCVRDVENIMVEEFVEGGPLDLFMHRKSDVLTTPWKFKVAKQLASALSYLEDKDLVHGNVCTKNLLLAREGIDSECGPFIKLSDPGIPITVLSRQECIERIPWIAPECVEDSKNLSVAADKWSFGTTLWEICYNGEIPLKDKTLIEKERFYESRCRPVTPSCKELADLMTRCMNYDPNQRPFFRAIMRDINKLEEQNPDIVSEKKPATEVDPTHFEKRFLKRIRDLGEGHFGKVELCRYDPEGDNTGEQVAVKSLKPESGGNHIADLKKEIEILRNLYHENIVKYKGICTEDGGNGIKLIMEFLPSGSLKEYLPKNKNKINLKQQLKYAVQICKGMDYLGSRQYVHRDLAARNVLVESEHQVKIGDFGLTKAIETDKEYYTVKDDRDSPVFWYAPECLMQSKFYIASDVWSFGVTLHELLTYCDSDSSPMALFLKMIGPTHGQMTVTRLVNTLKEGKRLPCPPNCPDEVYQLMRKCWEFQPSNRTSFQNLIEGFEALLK

On to `N#Cc1ccc(-n2cc(-c3ccnc4[nH]cnc34)cn2)nc1` [Example 1079, 6-(4-(3H-imidazo[4,5-b]pyridin-7-yl)-1H-pyrazol-1-yl)pyridine-3-carbonitrile], for which the IC50 on Recombinant JAK1 was greater than 10 µM; on Recombinant JAK2, greater than 1 µM; on Recombinant JAK3 it was greater than 1 µM; on Recombinant TYK2, greater than 10 µM.

Take `CS(=O)(=O)CC(Cc1ccc(-n2cc(-c3ccnc4[nH]cnc34)cn2)nc1)C(F)(F)F` (stereo not drawn) [Example 1194, 7-(1-(5-(3,3,3-trifluoro-2-((methylsulfonyl)methyl)propyl)pyridin-2-yl)-1H-pyrazol-4-yl)-3H-imidazo[4,5-b]pyridine]: the IC50 is greater than 0.5 µM on Recombinant JAK1, greater than 0.5 µM at Recombinant JAK2, greater than 0.5 µM at Recombinant JAK3 and greater than 1 µM at Recombinant TYK2.

Take `CC(CCS(C)(=O)=O)c1ccc(-n2cc(-c3ccnc4[nH]cnc34)cn2)nc1` (stereo not drawn) [Example 1163, 7-(1-(5-(4-(methylsulfonyl)butan-2-yl)pyridin-2-yl)-1H-pyrazol-4-yl)-3H-imidazo[4,5-b]pyridine]: the IC50 at Recombinant JAK1 is greater than 0.5 µM; at Recombinant JAK2, greater than 0.5 µM; on Recombinant JAK3 it was greater than 0.5 µM; on Recombinant TYK2, greater than 1 µM.

Consider `O=C(NCC1CCCC1)n1cc(-c2ccnc3[nH]c(=O)[nH]c23)cn1` [Example 1034, N-(cyclopentylmethyl)-4-(2,3-dihydro-2-oxo-1H-imidazo[4,5-b]pyridin-7-yl)-1H-pyrazole-1-carboxamide], for which the IC50 at Recombinant JAK1 is greater than 1 µM; on Recombinant JAK2, greater than 1 µM; on Recombinant JAK3, greater than 10 µM; at Recombinant TYK2, greater than 10 µM.

As to `N#CCC(=O)NCc1ccc(-n2cc(-c3ccnc4[nH]cnc34)cn2)nc1` [Example 1091, N-((6-(4-(3H-imidazo[4,5-b]pyridin-7-yl)-1H-pyrazol-1-yl)pyridin-3-yl)methyl)-2-cyanoacetamide], the IC50 at Recombinant JAK1 was greater than 0.5 µM; on Recombinant JAK2 it was greater than 1 µM; on Recombinant JAK3, greater than 0.5 µM; on Recombinant TYK2 it was greater than 10 µM.

For `c1cc(-c2cnn(-c3ccc(CN4CCOCC4)cn3)c2)c2nc[nH]c2n1` [Example 1085, 7-(1-(5-(morpholinomethyl)pyridin-2-yl)-1H-pyrazol-4-yl)-3H-imidazo[4,5-b]pyridine], the IC50 at Recombinant JAK1 is greater than 1 µM; at Recombinant JAK2, greater than 1 µM; at Recombinant JAK3, greater than 1 µM; at Recombinant TYK2 it was greater than 10 µM.

Take `FC(F)(F)C(CN1CCOCC1)c1ccc(-n2cc(-c3ccnc4[nH]cnc34)cn2)nc1` (stereo not drawn) [Example 1206, 7-(1-(5-(1,1,1-trifluoro-3-morpholinopropan-2-yl)pyridin-2-yl)-1H-pyrazol-4-yl)-3H-imidazo[4,5-b]pyridine]: the IC50 on Recombinant JAK1 is greater than 0.1 µM; at Recombinant JAK2, greater than 0.1 µM; at Recombinant JAK3, greater than 0.5 µM; on Recombinant TYK2, greater than 1 µM.

As for `N#CC1CN(C(=O)CNC(=O)n2cc(-c3ccnc4[nH]c(=O)[nH]c34)cn2)C1` [Example 1059, N-(2-(3-cyanoazetidin-1-yl)-2-oxoethyl)-4-(2-oxo-2,3-dihydro-1H-imidazo[4,5-b]pyridin-7-yl)-1H-pyrazole-1-carboxamide], the IC50 on Recombinant JAK1 is greater than 1 µM; on Recombinant JAK2 it was greater than 1 µM; at Recombinant JAK3, greater than 10 µM; at Recombinant TYK2 it was greater than 10 µM.

With `FC(F)(F)C(CCNC1CCCCC1)c1ccc(-n2cc(-c3ccnc4[nH]cnc34)cn2)nc1` (stereo not drawn) [Example 1199, N-(3-(6-(4-(3H-imidazo[4,5-b]pyridin-7-yl)-1H-pyrazol-1-yl)pyridin-3-yl)-4,4,4-trifluorobutyl)cyclohexanamine], the IC50 was less than 0.1 µM at Recombinant JAK1, greater than 0.1 µM on Recombinant JAK2, less than 0.1 µM on Recombinant JAK3 and greater than 0.5 µM at Recombinant TYK2.

As for `CS(=O)(=O)CCC(c1ccc(-n2cc(-c3ccnc4[nH]c(=O)[nH]c34)cn2)nc1)C(F)(F)F` (stereo not drawn) [Example 1147, 7-(1-(5-(1,1,1-trifluoro-4-(methylsulfonyl)butan-2-yl)pyridin-2-yl)-1H-pyrazol-4-yl)-1H-imidazo[4,5-b]pyridin-2(3H)-one], the IC50 on Recombinant JAK1 is greater than 0.5 µM; on Recombinant JAK2 it was greater than 1 µM; on Recombinant JAK3, greater than 1 µM; on Recombinant TYK2 it was greater than 1 µM.

Take `OCc1ccc(-n2cc(-c3ccnc4[nH]cnc34)cn2)nc1` [Example 1083, (6-(4-(3H-imidazo[4,5-b]pyridin-7-yl)-1H-pyrazol-1-yl)pyridin-3-yl)methanol]: the IC50 is greater than 0.5 µM on Recombinant JAK1, greater than 0.5 µM on Recombinant JAK2, less than 0.5 µM on Recombinant JAK3 and greater than 1 µM at Recombinant TYK2.

On to `CC(C)(CO)C(c1ccc(-n2cc(-c3ccnc4[nH]cnc34)cn2)nc1)C(F)(F)F` (stereo not drawn) [Example 1196, 3-(6-(4-(3H-imidazo[4,5-b]pyridin-7-yl)-1H-pyrazol-1-yl)pyridin-3-yl)-4,4,4-trifluoro-2,2-dimethylbutan-1-ol], for which the IC50 is greater than 0.1 µM on Recombinant JAK1, greater than 0.5 µM at Recombinant JAK2, greater than 0.1 µM at Recombinant JAK3 and greater than 1 µM on Recombinant TYK2.

With `CS(=O)(=O)CCNC(=O)N1CCN(c2ccnc3[nH]c(=O)[nH]c23)CC1` [Example 1013, 4-(2,3-dihydro-2-oxo-1H-imidazo[4,5-b]pyridin-7-yl)-N-(2-(methylsulfonyl)ethyl)piperazine-1-carboxamide], the IC50 on Recombinant JAK1, at Recombinant JAK2, on Recombinant JAK3 and at Recombinant TYK2 was greater than 10 µM each time.

For the compound `O=C(CN1CCN(c2ccnc3[nH]c(=O)[nH]c23)CC1)NCC(F)(F)F` [Example 1025, N-(2,2,2-trifluoroethyl)-2-(4-(2,3-dihydro-2-oxo-1H-imidazo[4,5-b]pyridin-7-yl)piperazin-1-yl)acetamide], the IC50 at Recombinant JAK1, at Recombinant JAK2, on Recombinant JAK3 and on Recombinant TYK2 was greater than 10 µM throughout.

In the case of `CCCS(=O)(=O)NC1CCN(C(=O)n2cc(-c3ccnc4[nH]cnc34)cn2)C1` (stereo not drawn) [Example 1069, N-(1-(4-(3H-imidazo[4,5-b]pyridin-7-yl)-1H-pyrazole-1-carbonyl)pyrrolidin-3-yl)propane-1-sulfonamide], the IC50 is greater than 10 µM on Recombinant JAK1, greater than 1 µM on Recombinant JAK2, greater than 0.5 µM at Recombinant JAK3 and greater than 1 µM at Recombinant TYK2.

On to `N#CCNC(=O)c1cnc(-n2cc(-c3ccnc4[nH]cnc34)cn2)nc1` [Example 1093, 2-(4-(3H-imidazo[4,5-b]pyridin-7-yl)-1H-pyrazol-1-yl)-N-(cyanomethyl)pyrimidine-5-carboxamide], for which the IC50 is greater than 0.5 µM on Recombinant JAK1, less than 0.5 µM at Recombinant JAK2, less than 0.5 µM on Recombinant JAK3 and greater than 10 µM on Recombinant TYK2.

Turning to `O=C(Nc1ccc(-c2ccnc3[nH]c(=O)[nH]c23)cc1)N1CCOCC1` [Example 1008, N-(4-(2,3-dihydro-2-oxo-1H-imidazo[4,5-b]pyridin-7-yl)phenyl)morpholine-4-carboxamide], the IC50 on Recombinant JAK1 is greater than 1 µM; at Recombinant JAK2 it was greater than 1 µM; at Recombinant JAK3 it was greater than 1 µM; on Recombinant TYK2 it was greater than 10 µM.

For the compound `N#CCNC(=O)n1cc(-c2ccnc3[nH]c(=O)[nH]c23)cn1` [Example 1035, N-(cyanomethyl)-4-(2,3-dihydro-2-oxo-1H-imidazo[4,5-b]pyridin-7-yl)-1H-pyrazole-1-carboxamide hydrochloride], the IC50 on Recombinant JAK1, at Recombinant JAK2, on Recombinant JAK3 and on Recombinant TYK2 was greater than 10 µM each time.

Source of the values: patent US12516056B2, “Compounds for inhibition of janus kinase 1” (MANKIND PHARMA LTD., priority 2019, dated 2026).
